In patent US8138145B2, “Hybrid oligomers, their preparation process and pharmaceutical compositions containing them” (Centre National de la Recherche Scientifique (SNRS), priority 2005, dated 2012):
≈ marks a conversion by molar mass, not a printed value.

Tests used:
Assay type in all cases: cell-based
[1] = system: Pseudomonas Aeruginosa ATCC 27853; conditions: Mueller-Hinton broth, 37° C., 18 to 20 hours; for Minimal bactericidal concentration, Pseudomonas Aeruginosa ATCC 27853: plate counting on sheep blood agar
Protocol: (§1) Four strains were selected: Escherichia Coli ATCC 25922, Staphylococcus Aureus ATCC 25923, Pseudomonas Aeruginosa ATCC 27853 and a clinical isolated methicillin resistant Staphylococcus Aureus strain. Antibacterial activity of the molecules was tested by dilution method in Mueller-Hinton broth in order to determine the minimal inhibitory concentration (MIC) and the minimal bactericidal concentration (MBC). At least two independent assays were done. Stock solutions were obtained by solubilizing molecule powders in distilled water at concentration of 2.56 mg/mL and serial 2-fold diluted solutions were prepared. Bacterial inoculum was standardized by using direct suspensions of colonies from overnight growth in saline adjusted to a turbidity matching the 0.5 McFarland standard, and diluted to obtain a density comprised between 10^5 CFU/mL and 10^7 CFU/mL. Tubes containing 900 μL of inoculum with 100 μL of molecules solutions were incubated in air at 37° C. for 18 to 20 hours. Purity and inoculum density as well as percentage of viable bacteria in limpid tubes were checked by plate counting on sheep blood agar. Broth not containing any molecule solution was inoculated with each selected bacterial strain as a control for organism viability (growth control). The susceptibility of S. Aureus strains against vancomycin was used as an internal control as well as the activity of melittin.

[2] = system: Escherichia Coli ATCC 25922; conditions: Mueller-Hinton broth, 37° C., 18 to 20 hours; for Minimal bactericidal concentration, Escherichia Coli ATCC 25922: plate counting on sheep blood agar
Protocol: as §1

[3] = system: clinical isolated methicillin resistant Staphylococcus Aureus strain; experiment: microbe, parasite or virus in culture; conditions: Mueller-Hinton broth, 37° C., 18 to 20 hours; for Minimal bactericidal concentration, clinical isolated methicillin resistant Staphylococcus Aureus strain: plate counting on sheep blood agar
Protocol: as §1

[4] = system: Staphylococcus Aureus ATCC 25923; experiment: microbe, parasite or virus in culture; conditions: for Minimal inhibitory concentration, Staphylococcus Aureus ATCC / Minimal bactericidal concentration, Staphylococcus Aureus ATCC: Mueller-Hinton broth, 37° C., 18 to 20 hours; for Minimal bactericidal concentration, Staphylococcus Aureus ATCC: plate counting on sheep blood agar
Protocol: as §1

Row | Structure (SMILES) | Minimal inhibitory concentration, Pseudomonas Aeruginosa ATCC 27853 [1] | Minimal bactericidal concentration, Pseudomonas Aeruginosa ATCC 27853 [1] | Minimal inhibitory concentration, Escherichia Coli ATCC 25922 [2] | Minimal bactericidal concentration, Escherichia Coli ATCC 25922 [2] | Minimal inhibitory concentration, clinical isolated methicillin resistant Staphylococcus Aureus strain [3] | Minimal bactericidal concentration, clinical isolated methicillin resistant Staphylococcus Aureus strain [3] | Minimal inhibitory concentration, Staphylococcus Aureus ATCC [4] | Minimal bactericidal concentration, Staphylococcus Aureus ATCC [4] | MIC ([3]; Staphylococcus aureus, read-out: Minimal inhibitory concentration, clinical isolated methicillin resistant Staphylococcus Aureus strain) | MIC ([4]; Staphylococcus aureus, ATCC25923, read-out: Minimal inhibitory concentration, Staphylococcus Aureus ATCC)
1 | CC(C)NC(=O)N[C@H](CNC(=O)N[C@@H](CCCCN)CNC(=O)N[C@H](CNC(=O)N[C@H](CNC(=O)N[C@@H](CCCCN)CNC(=O)N[C@H](CNC(=O)N[C@@H](CCCCN)CNC(=O)N[C@H](CCC(N)=O)C(C)C)Cc1c[nH]c2ccccc12)C(C)C)Cc1c[nH]c2ccccc12)C(C)C [Mol-4] | 128 µg/mL (≈ 92.2 µM) | 256 µg/mL (≈ 184 µM) | 32 µg/mL (≈ 23.1 µM) | 64 µg/mL (≈ 46.1 µM) | 16 µg/mL (≈ 11.5 µM) | 64 µg/mL (≈ 46.1 µM) | 8 µg/mL (≈ 5.76 µM) | <16 µg/mL | – | –
2 | CC(C)NC(=O)N[C@H](CNC(=O)N[C@@H](CCCCN)CNC(=O)N[C@H](CNC(=O)N[C@H](CNC(=O)N[C@@H](CCCCN)CNC(=O)N[C@H](CNC(=O)N[C@@H](CCCCN)CNC(N)=O)Cc1c[nH]c2ccccc12)C(C)C)Cc1c[nH]c2ccccc12)C(C)C [Mol-8] | 64 µg/mL (≈ 50.8 µM) | >256 µg/mL | 32 µg/mL (≈ 25.4 µM) | 256 µg/mL (≈ 203 µM) | – | – | 32 µg/mL (≈ 25.4 µM) | 32 µg/mL (≈ 25.4 µM) | – | –
3 | CC[C@H](C)[C@H](NC(=O)CN)C(=O)NCC(=O)N[C@@H](C)C(=O)N[C@H](C(=O)N[C@@H](CC(C)C)C(=O)N[C@@H](CCCCN)C(=O)N[C@H](C(=O)N[C@@H](CC(C)C)C(=O)N[C@H](C(=O)N[C@H](C(=O)NCC(=O)N[C@@H](CC(C)C)C(=O)N1CCC[C@H]1C(=O)N[C@@H](C)C(=O)N[C@@H](CC(C)C)C(=O)N[C@H](C(=O)N[C@@H](CO)C(=O)N[C@@H](Cc1c[nH]c2ccccc12)C(=O)N[C@H](C(=O)N[C@@H](CCCCN)C(=O)N[C@@H](CCCNC(=N)N)C(=O)N[C@@H](CCCCN)C(=O)N[C@@H](CCCNC(=N)N)C(=O)N[C@@H](CCC(N)=O)C(=O)N[C@@H](CCC(N)=O)C(N)=O)[C@@H](C)CC)[C@@H](C)CC)[C@@H](C)O)[C@@H](C)O)C(C)C)C(C)C [mellitin, reference compound] | >256 µg/mL | >256 µg/mL | – | >256 µg/mL | 32 µg/mL (≈ 11.2 µM) | 128 µg/mL (≈ 45 µM) | – | – | – | –
4 | CN[C@H](CC(C)C)C(=O)N[C@H]1C(=O)N[C@@H](CC(N)=O)C(=O)N[C@H]2C(=O)N[C@H]3C(=O)N[C@H](C(=O)N[C@H](C(=O)O)c4cc(O)cc(O)c4-c4cc3ccc4O)[C@H](O)c3ccc(c(Cl)c3)Oc3cc2cc(c3O[C@@H]2O[C@H](CO)[C@@H](O)[C@H](O)[C@H]2O[C@H]2C[C@](C)(N)[C@H](O)[C@H](C)O2)Oc2ccc(cc2Cl)[C@H]1O [vancomycin, reference compound] | – | – | – | – | – | – | – | – | 1 µg/mL (≈ 0.69 µM) | 2 µg/mL (≈ 1.38 µM)
